Patent US11629171B2, “Beta-hairpin peptidomimetics” (POLYPHOR AG, priority 2017, dated 2023)
Converted amounts (≈) assume the structure as drawn. Where a SMILES comes first, the peptide text is derived from it. Bridges are numbered along the chain shown (N, C = ends). Roman numbers before positions name the chains, in order. [ ]: non-standard residue; d: D form. The star is where a group is joined. Thr(ol) = C[C@@H](O)[C@H](N)CO; Tle = CC(C)(C)[C@H](N)C(=O)O; Hiv = CC(C)[C@H](O)C(=O)O; dDab = NCC[C@@H](N)C(=O)O; hSer = N[C@@H](CCO)C(=O)O; Dab = NCC[C@H](N)C(=O)O; Dap = NC[C@H](N)C(=O)O; Propionyl = CCC(=O)*

Key:
Type in all cases: cell-based
[1] = system: Escherichia coli 926415; conditions: 926415
Procedure, shortened: (§1)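 CLSI broth microdilution: inoculum ~10^6 CFU/mL in cation-adjusted Mueller-Hinton II broth, with peptide in serial two-fold dilutions plus Polysorbate 80 (0.002% final). MIC (μg/mL) is the lowest concentration without visible growth after 18-20 hours at 35° C.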

[2] = system: Klebsiella pneumoniae 968733; conditions: 968733
Procedure, shortened: as §1

[3] = system: Escherichia coli ATCC 25922; conditions: ATCC 25922
Procedure, shortened: as §1

[4] = system: Acinetobacter baumannii DSM 30008; conditions: DSM 30008
Procedure, shortened: as §1

[5] = system: Klebsiella pneumoniae SSI #3010; conditions: SSI #3010
Procedure, shortened: as §1

[6] = system: Acinetobacter baumannii 872842; conditions: 872842
Procedure, shortened: as §1

[7] = system: Enterobacter cloacae 848840; conditions: 848840
Procedure, shortened: as §1

[8] = system: Pseudomonas aeruginosa ATCC 27853; conditions: ATCC 27853
Procedure, shortened: as §1

[9] = system: human red blood cells (hRBC); experiment: Hemolysis; conditions: red cells of human, 1 h, 200
Procedure, shortened: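 Washed fresh human RBC (20% v/v) incubated with peptide at 200 μg/mL for 1 h at 37° C with shaking. Supernatant OD540 measured after dilution, blank corrected; percent hemolysis = OD540 peptide / OD540 of 2% Triton X-100 lysis × 100, PBS with 10% water as 0%.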

| Compound | MIC [1] [µg/mL] | MIC [2] [µg/mL] | MIC [3] [µg/mL] | MIC [4] [µg/mL] | MIC [5] [µg/mL] | MIC [6] [µg/mL] | MIC [7] [µg/mL] | MIC [8] [µg/mL] | Hemolysis at 200 μg/mL [9] [%] |
| --- | --- | --- | --- | --- | --- | --- | --- | --- | --- |
| CC(C)C[C@@H]1NC(=O)[C@@H](CC(C)C)NC(=O)[C@H](CCN)NC(=O)[C@@H](NC(=O)[C@H](CN)NC(=O)[C@@H](NC(=O)[C@H](CCN)NC(=O)CC[C@@H]2NC(=O)[C@H](CN)NC(=O)[C@H](Cc3ccc(O)cc3)NC(=O)[C@@H](NC(=O)[C@@H](O)C(C)C)CSSC[C@@H](C(=O)N[C@H](CO)[C@@H](C)O)NC(=O)[C@H](C(C)(C)C)NC(=O)[C@H](CO)NC(=O)[C@H](Cc3c[nH]c4ccccc34)NC(=O)[C@H](CCO)NC(=O)[C@@H](CCN)NC2=O)[C@@H](C)O)CCNC(=O)[C@H]([C@@H](C)O)NC(=O)[C@H](CCN)NC(=O)[C@H](CCN)NC1=O [Ex. 112] (I: H-[Hiv]CY[Dap]E[dDab][hSer]WS[Tle]C[Thr(ol)] / II: [Dab]T[Dap][Dab][Dab][dL]L[Dab][Dab]T; disulfide I:2-I:11; amide I:5-II:N; lactam II:4-II:C) | 0.0625 (≈ 0.0263 µM) | 0.125 (≈ 0.0527 µM) | 0.0625 (≈ 0.0263 µM) | 0.0625 (≈ 0.0263 µM) | 0.0625 (≈ 0.0263 µM) | 0.0625 (≈ 0.0263 µM) | 0.125 (≈ 0.0527 µM) | 0.125 (≈ 0.0527 µM) | <1 |
| CC(=O)N[C@H](C(=O)N[C@H]1CSSC[C@@H](C(=O)N[C@@H](CO)C(N)=O)NC(=O)[C@H](C(C)(C)C)NC(=O)[C@H](CO)NC(=O)[C@H](Cc2c[nH]c3ccccc23)NC(=O)[C@H](CO)NC(=O)[C@@H](CCN)NC(=O)[C@H](CCC(=O)N[C@@H](CCN)C(=O)N[C@H](C(=O)N[C@@H](CN)C(=O)N[C@H]2CCNC(=O)[C@H]([C@@H](C)O)NC(=O)[C@H](CCN)NC(=O)[C@H](CCN)NC(=O)[C@H](CC(C)C)NC(=O)[C@@H](CC(C)C)NC(=O)[C@H](CCN)NC2=O)[C@@H](C)O)NC(=O)[C@H](CN)NC(=O)[C@H](Cc2ccc(O)cc2)NC1=O)C(C)C [Ex. 117] (I: Ac-VCY[Dap]E[dDab]SWS[Tle]CS-NH2 / II: [Dab]T[Dap][Dab][Dab][dL]L[Dab][Dab]T; disulfide I:2-I:11; amide I:5-II:N; lactam II:4-II:C) | 0.0625 (≈ 0.0261 µM) | 0.0625 (≈ 0.0261 µM) | 0.0625 (≈ 0.0261 µM) | 0.01562 (≈ 0.00651 µM) | 0.0625 (≈ 0.0261 µM) | 0.01562 (≈ 0.00651 µM) | 0.0625 (≈ 0.0261 µM) | 0.125 (≈ 0.0521 µM) | 2 |
| CCC(=O)N[C@H](C(=O)N[C@H]1CSSC[C@@H](C(=O)N[C@@H](CO)C(N)=O)NC(=O)[C@H](C(C)(C)C)NC(=O)[C@H](CO)NC(=O)[C@H](Cc2c[nH]c3ccccc23)NC(=O)[C@H](CO)NC(=O)[C@@H](CCN)NC(=O)[C@H](CCC(=O)N[C@@H](CCN)C(=O)N[C@H](C(=O)N[C@@H](CN)C(=O)N[C@H]2CCNC(=O)[C@H]([C@@H](C)O)NC(=O)[C@H](CCN)NC(=O)[C@H](CCN)NC(=O)[C@H](CC(C)C)NC(=O)[C@@H](CC(C)C)NC(=O)[C@H](CCN)NC2=O)[C@@H](C)O)NC(=O)[C@H](CN)NC(=O)[C@H](Cc2ccc(O)cc2)NC1=O)C(C)C [Ex. 119] (I: Propionyl-VCY[Dap]E[dDab]SWS[Tle]CS-NH2 / II: [Dab]T[Dap][Dab][Dab][dL]L[Dab][Dab]T; disulfide I:2-I:11; amide I:5-II:N; lactam II:4-II:C) | 0.0625 (≈ 0.0259 µM) | 0.125 (≈ 0.0518 µM) | 0.0625 (≈ 0.0259 µM) | 0.0625 (≈ 0.0259 µM) | 0.0625 (≈ 0.0259 µM) | 0.03125 (≈ 0.013 µM) | 0.0625 (≈ 0.0259 µM) | 0.125 (≈ 0.0518 µM) | <1 |
| CC(=O)N[C@H](C(=O)N[C@H]1CSSC[C@@H](C(=O)N[C@@H](CO)C(N)=O)NC(=O)[C@H](C(C)(C)C)NC(=O)[C@H](CO)NC(=O)[C@H](Cc2c[nH]c3ccccc23)NC(=O)[C@H](CCN)NC(=O)[C@@H](CCN)NC(=O)[C@H](CCC(=O)N[C@@H](CCN)C(=O)N[C@H](C(=O)N[C@@H](CN)C(=O)N[C@H]2CCNC(=O)[C@H]([C@@H](C)O)NC(=O)[C@H](CCN)NC(=O)[C@H](CCN)NC(=O)[C@H](CC(C)C)NC(=O)[C@@H](CC(C)C)NC(=O)[C@H](CCN)NC2=O)[C@@H](C)O)NC(=O)[C@H](CN)NC(=O)[C@H](Cc2ccc(O)cc2)NC1=O)C(C)C [Ex. 120] (I: Ac-VCY[Dap]E[dDab][Dab]WS[Tle]CS-NH2 / II: [Dab]T[Dap][Dab][Dab][dL]L[Dab][Dab]T; disulfide I:2-I:11; amide I:5-II:N; lactam II:4-II:C) | 0.0625 (≈ 0.0259 µM) | 0.125 (≈ 0.0518 µM) | 0.125 (≈ 0.0518 µM) | 0.0625 (≈ 0.0259 µM) | 0.0625 (≈ 0.0259 µM) | 0.0625 (≈ 0.0259 µM) | 0.25 (≈ 0.104 µM) | 0.125 (≈ 0.0518 µM) | 1 |
